In patent US8415475B2, “Antibacterial quinoline derivatives” (Janssen Pharmaceutica N.V., priority 2006, dated 2013):
Converted amounts (≈) assume the structure as drawn.

Columns and labels:
[1] = tested on: Streptococcus pyogens (ATCC8668); experiment: In-vitro anti-bacterial microtitre plate assay, IC90, S. pyogens; assay type: cell-based; details: 90% inhibitory concentration for bacterial growth, resazurin fluorescence; for IC90: Streptococcus, ATCC8668, 24 h, read-out: IC90 values SPY 8668
Experimental: (§1) D.3. In-Vitro Method for Testing Compounds for Anti-Bacterial Activity Against Various Non-Mycobacterial Strains The bacteria used in this study were grown overnight in flasks containing 100 ml Mueller-Hinton Broth (Becton Dickinson-cat. no. 275730) in sterile de-ionized water, with shaking, at 37° C. Stocks (0.5 ml/tube) were stored at -70° C. until use. Bacteria titrations were performed in microtiter plates to detect the TCID50, in which the TCID50 represents the dilution that gives rise to bacterial growth in 50% of inoculated cultures. In general, an inoculum level of approximately 100 TCID50 was used for susceptibility testing. Flat-bottom, sterile 96-well plastic microtiter plates were filled with 180 μl of sterile deionized water, supplemented with 0.25% BSA. Subsequently, stock solutions (7.8× final test concentration) of compounds were added in 45 μl volumes in column 2. Serial five-fold dilutions (45 μl in 180 μl) were made directly in the microtiter plates from column 2 to reach column 11. Untreated control samples with (column 1) and without (column 12) inoculum were included in each microtiter plate. Depending on the bacteria type, approximately 10 to 60 CFU per well of bacteria inoculum (100 TCID50), in a volume of 100 μl in 2.8× Mueller-Hinton broth medium, was added to the rows […]. The same volume of broth medium without inoculum was added to column 12 in row A to H. The cultures were incubated at 37° C. for 24 hours under a normal atmosphere (incubator with open air valve and continuous ventilation). At the end of incubation, one day after inoculation, the bacterial growth was quantitated fluorometrically. Therefore resazurin (0.6 mg/ml) was added in a volume of 20 μl to all wells 3 hours after inoculation, and the plates were re-incubated overnight. A change in colour from blue to pink indicated the growth of bacteria. The fluorescence was read in a computer-controlled fluorometer (Cytofluor Biosearch) at an excitation wavelength of 530 nm and an emission wavelength of 590 nm. The % growth inhibition achieved by the compounds was calculated according to standard methods.

[2] = tested on: Staphylococcus aureus (ATCC29213); experiment: In-vitro anti-bacterial microtitre plate assay, IC90, S. aureus; assay type: cell-based; details: 90% inhibitory concentration for bacterial growth, resazurin fluorescence; for IC90 values STA 1 B29213: 24 hours; for IC90: Staphylococcus aureus, ATCC29213, 24 h, read-out: IC90 values STA 1 B29213
Experimental: as §1

[3] = tested on: Streptococcus pneumoniae (ATCC6305); experiment: In-vitro anti-bacterial microtitre plate assay, IC90, S. pneumoniae; assay type: cell-based; details: 90% inhibitory concentration for bacterial growth, resazurin fluorescence; for IC90 values SPN 1 6305: 24 hours; for IC90: Streptococcus pneumoniae, ATCC6305, 24 h, read-out: IC90 values SPN 1 6305
Experimental: as §1

[4] = tested on: Enterococcus faecalis (ATCC29212); experiment: In-vitro anti-bacterial microtitre plate assay, IC90, E. faecalis; assay type: cell-based; details: 90% inhibitory concentration for bacterial growth, resazurin fluorescence; for IC90: Enterococcus faecalis, ATCC29212, 24 h, read-out: IC90 values EFA 29212
Experimental: as §1

M. Smegmatis (ATCC607) = experiment: In-vitro anti-bacterial activity against strain M. smegmatis ATCC607; assay type: cell-based; details: 90% inhibitory concentration for bacterial growth, Alamar Blue fluorescence; for IC90 values MSM 1 ATCC607: 48 hours; for IC90: Mycolicibacterium smegmatis, ATCC607, 48 h, read-out: IC90 values MSM 1 ATCC607
Experimental: D.2. In-Vitro Method for Testing Compounds for Anti-Bacterial Activity Against Strain M. smegmatis ATCC607. Flat-bottom, sterile 96-well plastic microtiter plates were filled with 180 μl of sterile deionized water, supplemented with 0.25% BSA. Subsequently, stock solutions (7.8× final test concentration) of compounds were added in 45 μl volumes to a series of duplicate wells in column 2 so as to allow evaluation of their effects on bacterial growth. Serial five-fold dilutions (45 μl in 180 μl) were made directly in the microtiter plates from column 2 to 11 using a customised robot system (Zymark Corp., Hopkinton, Mass.). Pipette tips were changed after every 3 dilutions to minimize pipetting errors with high hydrophobic compounds. Untreated control samples with (column 1) and without (column 12) inoculum were included in each microtiter plate. Approximately 250 CFU per well of bacteria inoculum, in a volume of 100 μl in 2.8× Mueller-Hinton broth medium, was added to the rows […]. The same volume of broth medium without inoculum was added to column 12 in row A to H. The cultures were incubated at 37° C. for 48 hours in a humidified 5% CO2 atmosphere (incubator with open air valve and continuous ventilation). At the end of incubation, two days after inoculation, the bacterial growth was quantitated fluorometrically. Therefore Alamar Blue (10×) was added to all wells in a volume of 20 μl and plates were incubated for another 2 hours at […] The fluorescence was read in a computer-controlled fluorometer (Cytofluor, Biosearch) at an excitation wavelength of 530 nm and an emission wavelength of 590 nm (gain 30).

[5] = tested on: Mycobacterium tuberculosis (strain H37RV); experiment: In-vitro method for testing compounds against M. tuberculosis; assay type: cell-based; details: 90% inhibitory concentration for bacterial growth, 7 days, Middlebrook broth, resazurin fluorescence; for IC90: Mycobacterium tuberculosis, H37RV, 168 h, read-out: IC90 values MTB 1 H37RV

Compound | IC90 values STA 1 B29213 [2] [µg/mL] | IC90 values SPN 1 6305 [3] [µg/mL] | melting point [°C] | IC90 [2] [µg/mL] | IC90 [3] [µg/mL] | IC90 values MSM 1 ATCC607 (M. Smegmatis (ATCC607)) [µg/mL] | also measured
COc1nc2ccc(CN3CCN(C)CC3)cc2cc1C(c1ccccc1)C(O)(CCN(C)C)c1cccc2ccccc12 (single isomer, unassigned) [Compound 29] |  |  |  | 9.3 (≈ 15.8 µM) | 10.5 (≈ 17.8 µM) |  | IC90 (M. Smegmatis (ATCC607)): 2.6 µg/mL (≈ 4.42 µM)
C=Cc1ccc2nc(OC)c(C(c3ccccc3)C(O)(CCN(C)C)c3cccc4ccccc34)cc2c1 (single isomer, unassigned) [Compound 10] |  | 20.0 (≈ 39.8 µM) |  | 50.3 (≈ 100 µM) |  |  | IC90 (M. Smegmatis (ATCC607)): 8 µg/mL (≈ 15.9 µM)
COc1nc2ccc(/C=N/O)cc2cc1C(c1ccccc1)C(O)(CCN(C)C)c1cccc2ccccc12 (single isomer, unassigned) [Compound 24] |  | 1.6 (≈ 3.08 µM) | 167 | 8.2 (≈ 15.8 µM) |  | 2.3 (≈ 4.43 µM) | 
C=Cc1ccc2nc(OC)c(C(c3ccccc3)C(O)(CCc3ccc(F)cc3)CCN(C)C)cc2c1 (single isomer, unassigned) [Compound 6] |  |  | 135 | 1.6 (≈ 3.21 µM) | 1.3 (≈ 2.61 µM) | 0.1 (≈ 0.201 µM) | 
COc1nc2ccc(CN(C)C)cc2cc1C(c1ccccc1)C(O)(CCN(C)C)c1cccc2ccccc12 (single isomer, unassigned) [Compound 21] |  |  |  | 10.7 (≈ 20 µM) | 13.4 (≈ 25.1 µM) | 0.7 (≈ 1.31 µM) | 
C=Cc1ccc2nc(OC)c(C(c3ccc(Cl)cc3)C(O)(CCN(C)C)c3ccccc3)cc2c1 (single isomer, unassigned) [Compound 2] | 48.7 (≈ 100 µM) | 1.7 (≈ 3.49 µM) | 187 |  |  |  | IC90 [1]: 1.22 µg/mL (≈ 2.5 µM); IC90 [4]: 38.7 µg/mL (≈ 79.4 µM); IC90 (M. Smegmatis (ATCC607)): 1.4 µg/mL (≈ 2.87 µM)
COc1nc2ccc(C(=O)N(C)C)cc2cc1C(c1ccccc1)C(O)(CCN(C)C)c1cccc2ccccc12 (single isomer, unassigned) [Compound 28] |  |  |  | 43.5 (≈ 79.4 µM) | 10.9 (≈ 19.9 µM) |  | IC90 [5]: 3.5 µg/mL (≈ 6.39 µM); IC90 (M. Smegmatis (ATCC607)): 0.1 µg/mL (≈ 0.183 µM)
COc1nc2ccc(N)cc2cc1C(c1ccccc1)C(O)(CCN(C)C)c1cccc2ccccc12 (single isomer, unassigned) [Compound 16] | 43.8 (≈ 89.1 µM) | 24.6 (≈ 50 µM) |  |  |  | 7.8 (≈ 15.9 µM) | IC90 values MTB 1 H37RV [5]: 31.0 µg/mL (≈ 63.1 µM)
COc1nc2ccc(/C=N/O)cc2cc1C(c1ccccc1)C(O)(CCCCN(C)C)c1ccc2ccccc2c1 (single isomer, unassigned) [Compound 33] | 1.7 (≈ 3.1 µM) | 1.9 (≈ 3.47 µM) | 180 |  |  | 1.7 (≈ 3.1 µM) | 
C=Cc1ccc2nc(OC)c(C(c3ccccc3)C(O)(CCCCN3CCCCC3)c3ccccc3)cc2c1 (single isomer, unassigned) [Compound 34] |  | 2.1 (≈ 4.03 µM) |  | 1.7 (≈ 3.26 µM) |  |  | IC90 (M. Smegmatis (ATCC607)): 1.7 µg/mL (≈ 3.26 µM)
COc1nc2ccc(C(=O)c3cccc(Br)c3)cc2cc1C(c1ccc(Cl)cc1)C(O)(CCN(C)C)c1ccccc1 (single isomer, unassigned) [Compound 40] |  |  | 185 |  |  |  | 
C=Cc1ccc2nc(OC)c(C(c3ccccc3)C(O)(CCc3ccc(F)cc3)CCN(C)C)cc2c1 (single isomer, unassigned) [Compound 7] | 1.6 (≈ 3.21 µM) | 1.3 (≈ 2.61 µM) | 156 |  |  | 1.3 (≈ 2.61 µM) | 
C=Cc1ccc2nc(OC)c(C(c3ccccc3)C(O)(CCCCN3CCCCC3)c3ccccc3)cc2c1 (single isomer, unassigned) [Compound 35] | 1.7 (≈ 3.26 µM) | 10.4 (≈ 20 µM) |  |  |  | 1.7 (≈ 3.26 µM) | 
COc1nc2ccc(CN)cc2cc1C(c1ccccc1)C(O)(CCN(C)C)c1cccc2ccccc12 (single isomer, unassigned) [Compound 17] | 8.0 (≈ 15.8 µM) | 8.0 (≈ 15.8 µM) |  |  |  | 0.4 (≈ 0.791 µM) | IC90 [5]: 3.6 µg/mL (≈ 7.12 µM)
C/C=C/c1ccc2nc(OC)c(C(c3ccccc3)C(O)(CCN(C)C)c3cccc4ccccc34)cc2c1 (single isomer, unassigned) [Compound 12] |  | 0.7 (≈ 1.35 µM) | 189 | 51.7 (≈ 100 µM) |  | 0.3 (≈ 0.581 µM) | IC90 [1]: 51.7 µg/mL (≈ 100 µM); IC90 [4]: 51.7 µg/mL (≈ 100 µM)
COc1nc2ccc(CN)cc2cc1C(c1ccccc1)C(O)(CCN(C)C)c1cccc2ccccc12 (single isomer, unassigned) [Compound 20] | 35.8 (≈ 70.8 µM) |  |  |  | 8 (≈ 15.8 µM) | 40.2 (≈ 79.5 µM) | 
CO/N=C/c1ccc2nc(OC)c(C(c3ccccc3)C(O)(CCCCN(C)C)c3ccccc3)cc2c1 (single isomer, unassigned) [Compound 4] |  |  |  | 8.1 (≈ 15.8 µM) | 10.2 (≈ 19.9 µM) |  | IC90 (M. Smegmatis (ATCC607)): 1.6 µg/mL (≈ 3.13 µM)

The next lines start with results.

IC90 values STA 1 B29213 [2] [µg/mL] | IC90 values SPN 1 6305 [3] [µg/mL] | melting point [°C] | IC90 [2] [µg/mL] | IC90 [3] [µg/mL] | Compound | IC90 values MSM 1 ATCC607 (M. Smegmatis (ATCC607)) [µg/mL] | also measured
45.9 (≈ 89.2 µM) | 1.5 (≈ 2.91 µM) | 202 |  |  | CC#Cc1ccc2nc(OC)c(C(c3ccccc3)C(O)(CCN(C)C)c3cccc4ccccc34)cc2c1 (single isomer, unassigned) [Compound 14] | 0.3 (≈ 0.583 µM) | IC90 values SPY 8668 ([1]; 24 hours): 40.88 µg/mL (≈ 79.4 µM); IC90 values EFA 29212 ([4]; 24 hours): 51.47 µg/mL (≈ 100 µM)
 |  |  | 7.9 (≈ 15.9 µM) | 49.8 (≈ 100 µM) | COc1nc2ccc(/C=N/O)cc2cc1C(c1ccccc1)C(O)(CCCCN(C)C)c1ccccc1 (single isomer, unassigned) [Compound 3] |  | IC90 (M. Smegmatis (ATCC607)): 7.9 µg/mL (≈ 15.9 µM)
 |  | 184 | 48.7 (≈ 100 µM) | 1.7 (≈ 3.49 µM) | C=Cc1ccc2nc(OC)c(C(c3ccc(Cl)cc3)C(O)(CCN(C)C)c3ccccc3)cc2c1 (single isomer, unassigned) [Compound 1] |  | 
 |  | 118 |  |  | COc1nc2ccc(C(=O)c3cccc(Br)c3)cc2cc1C(c1ccccc1)C(O)(CCN(C)C)c1cccc2ccccc12 (stereo not drawn) [Compound 38] |  | 
 | 10.9 (≈ 19.9 µM) |  | 1.7 (≈ 3.1 µM) |  | COc1nc2ccc(/C=N/O)cc2cc1C(c1ccccc1)C(O)(CCCCN(C)C)c1ccc2ccccc2c1 (single isomer, unassigned) [Compound 32] | 7.7 (≈ 14.1 µM) | 
 | 0.3 (≈ 0.583 µM) | 100 | 51.5 (≈ 100 µM) |  | CC#Cc1ccc2nc(OC)c(C(c3ccccc3)C(O)(CCN(C)C)c3cccc4ccccc34)cc2c1 (single isomer, unassigned) [Compound 13] | 0.003 (≈ 0.00583 µM) | IC90 [1]: 51.5 µg/mL (≈ 100 µM); IC90 [4]: 51.5 µg/mL (≈ 100 µM)
9.5 (≈ 17.8 µM) | 21.3 (≈ 39.9 µM) |  |  |  | COc1nc2ccc(CN(C)C)cc2cc1C(c1ccccc1)C(O)(CCN(C)C)c1cccc2ccccc12 (single isomer, unassigned) [Compound 22] | 18.9 (≈ 35.4 µM) | 
